Measurements from patent US20130029973A1, “TETRAHYDROBENZOTHIOPHENE COMPOUND” (ASTELLAS PHARMA INC., priority 2010, published 2013).

Tests used:
rat NPT-IIb = target: T1, rat NPT-IIb (Rattus norvegicus, UniProt Q9JJ09); test: 33P phosphate uptake inhibiting action of rat NPT-IIb expressing cell; assay type: cell-based; conditions: HEK293; evaluation concentration 1 μM; 33P uptake in rat NPT-IIb stably expressing 293 cells; read-out: Rat NPT-IIb inhibitory rate (%)
T1 construct: rat NPT-IIb ORF was cloned into p3×FLAG-CMV-10; 3xFLAG (N); expressed in transfected cells
T1 sequence (Q9JJ09 1-695): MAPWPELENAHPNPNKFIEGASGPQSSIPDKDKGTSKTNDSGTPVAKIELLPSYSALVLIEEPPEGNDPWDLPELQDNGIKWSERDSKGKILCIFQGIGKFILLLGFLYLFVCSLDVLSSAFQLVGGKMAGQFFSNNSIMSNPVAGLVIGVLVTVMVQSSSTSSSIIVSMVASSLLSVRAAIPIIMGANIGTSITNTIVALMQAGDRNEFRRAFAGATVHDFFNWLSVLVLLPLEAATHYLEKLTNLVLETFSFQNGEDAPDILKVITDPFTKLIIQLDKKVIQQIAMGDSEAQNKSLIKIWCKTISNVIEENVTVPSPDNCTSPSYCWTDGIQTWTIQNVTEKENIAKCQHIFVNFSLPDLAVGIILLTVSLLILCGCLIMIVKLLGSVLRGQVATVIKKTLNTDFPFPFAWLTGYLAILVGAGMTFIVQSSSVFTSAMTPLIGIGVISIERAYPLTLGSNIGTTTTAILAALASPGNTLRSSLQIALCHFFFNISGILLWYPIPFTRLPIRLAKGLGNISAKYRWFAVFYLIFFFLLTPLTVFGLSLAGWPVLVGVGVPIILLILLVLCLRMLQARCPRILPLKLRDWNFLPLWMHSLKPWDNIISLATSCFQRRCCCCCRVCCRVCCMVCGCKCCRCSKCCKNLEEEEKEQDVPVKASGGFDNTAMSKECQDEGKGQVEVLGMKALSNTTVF
Source text: Test Example 1: ^33P Phosphate Uptake Inhibiting Action of Rat NPT-IIb Expressing Cell
Preparation of Rat NPT-IIb Expressing Cell
Using rat small intestine cDNA library as a template, rat NPT-IIb ORF was cloned into p3×FLAG-CMV-10 by PCR according to a standard method. Then, the cloned rat NPT-IIb expressing plasmid was transfected into 293 cells, and G418 was used to obtain a rat NPT-11b-stably expressing cell line.
Evaluation System on Inhibition of Phosphate Uptake into Rat NPT-IIb Expressing Cell
The rat NPT-Hb expressing cells were seeded into a 96-well plate and incubated overnight. The medium was taken out and washed with buffer A (137 mM N-methyl-D-glucamine, 5.4 mM KCl, 2.8 mM CaCl2, 1.2 mM MgCl2, 10 mM HEPES (adjusted to pH 7.4 with HCl)), and then buffer B (137 mM NaCl, 5.4 mM KCl, 2.8 mM CaCl2, 1.2 mM MgCl2, 0.1 mM KH2PO4, 10 mM HEPES (adjusted to pH 7.4 with KOH)) was added thereto. Then, a compound having 10-fold higher concentration relative to the evaluation concentration was prepared by dilution with the buffer B and added thereto, followed by incubation in CO2 incubator. Buffer B supplemented 50 μCi/mL ^33P was added thereto, followed by further incubation in a CO2 incubator. After the reaction, the buffer was taken out and the cells were washed with buffer C (137 mM NaCl, 10 mM Tris/HCl pH 7.2). Then, Microscint-20 was added thereto and ^33P uptake was measured by using TopCount. The inhibitory rate was determined according to the following equation.
Inhibitory rate (%)=(1−(^33P uptake of drug-treated well)/(^33P uptake of DMSO-added well))×100
For several compounds of the formula (I), rat NPT-11b inhibitory activity at a pharmacological evaluation concentration of 1 μM is shown in Table 1. Here, Ex represents Example No. as denoted below (this shall apply hereinafter).

[1] = test system: orally 32P phosphate loaded rats; test: Blood radioactivity increase inhibiting action in orally 32P phosphate loaded rats (phosphate absorption inhibitory action); assay type: in vivo; conditions: Rattus norvegicus, 0.5 h; 3 mg/kg oral, male Wistar rats; from serum radioactivity AUC0-30min vs control group; read-out: Phosphate absorption inhibitory rate (%)
Description: Blood Radioactivity Increase Inhibiting Action in Orally ^32P Phosphate Loaded Rats (Phosphate Absorption Inhibitory Action)
Male Wistar rats (6 to 7 weeks old) were fasted for 24 hours and used as experimental animals. The compound was dissolved or suspended with a solvent, and was used at a concentration of 0.6 mg/mL. The compound-administered animals were forcibly orally administered with the compound at a dose of 3 mg/kg. Control-group animals were administered a solvent containing no compound at a dose of 5 mL/kg. After 5 minutes from administration of the compound or from administration of the solvent, a ^32P-containing phosphate solution (8.3 mM NaH2PO4) was orally administered thereto at a dose of 7.2 mL/kg. After 15 minutes and 30 minutes, the blood was taken from the orbital venous plexus and the serum was collected. Radioactivity in 0.1 mL of the serum was measured by a liquid scintillation counter. AUC0-30min calculated from the measured counts was considered as a phosphate absorption amount. The phosphate absorption inhibitory rate was determined from the AUC0-30min value according to the following equation.
Phosphate absorption inhibitory rate (%)=(1−Phosphate absorption count of compound-administered group/Phosphate absorption count of control group)×100
As a result, it was confirmed that several compounds of the formula (I) have an intestinal phosphate absorption inhibitory action. With the several compounds of the formula (I), the phosphate absorption inhibitory rates at a pharmacological evaluation dose of 3 mg/kg are shown in Table 2.

inhibition at 1 µM (rat NPT-IIb) | melting point | SMILES | inhibition in vivo at 3 mg/kg [1]
86% | 178.5 °C | CCN([C@H]1CC[C@H](C(=O)O)CC1)S(=O)(=O)c1cccc(C(=O)Nc2sc3c(c2C(=O)Nc2ccc(CCCc4ccc(C(=O)O)cc4)cc2)CCCC3)c1 [Example 23, 4-{3-[4-({[2-({3-[(trans-4-carboxycyclohexyl)(ethyl)sulfamoyl]benzoyl}amino)-4,5,6,7-tetrahydro-1-benzothiophen-3-yl]carbonyl}amino)phenyl]propyl}benzoic acid] | ≥ 60%
80% | 220.1 °C | O=C(O)CCCCN(C1CC1)S(=O)(=O)c1cccc(C(=O)Nc2sc3c(c2C(=O)Nc2ccc(CCc4ccc(C(=O)O)cc4)cc2)CCCC3)c1 [Example 34, 4-{2-[4-({[2-({3-[(4-carboxybutyl)(cyclopropyl)sulfamoyl]benzoyl}amino)-4,5,6,7-tetrahydro-1-benzothiophen-3-yl]carbonyl}amino)phenyl]ethyl}benzoic acid] | ≥ 60%
